Data published in the NIST ThermoML archive (doi:10.1021/je901020a).

Columns and labels:
[1] = refractive index (Na D-line) (dimensionless); xn = mol fraction of the nth substance listed; details: 101 kPa, Liquid, Standard Abbe refractometry
[2] = xn = mol fraction of the nth substance listed; details: 101 kPa, Liquid; for speed of sound: Pulse-echo method

C1CCCC1 [cyclopentane] + Cc1ccccc1C
Details	mass density, [2] [kg/m3]	refractive index, [1]	speed of sound, [2] [m/s]
298.15 K, x1 = 0.045	870.7	1.49951	1342
298.15 K, x1 = 0.0924	865.7	1.49549	1336
298.15 K, x1 = 0.1949	854.1	1.48698	1319
298.15 K, x1 = 0.2932	842.5	1.4791	1304
298.15 K, x1 = 0.3903	830.4	1.47003	1289
298.15 K, x1 = 0.4954	816.6	1.46059	1273
298.15 K, x1 = 0.594	802.9	1.4507	1259
298.15 K, x1 = 0.6958	788.1	1.43935	1244
298.15 K, x1 = 0.7939	773	1.42832	1231
298.15 K, x1 = 0.8926	757.3	1.41649	1217
298.15 K, x1 = 0.9503	747.9	1.40949	1210
298.15 K, x1 = 1	740	1.40292	1204
313.15 K, x1 = 0.072	855	1.48922	1277
313.15 K, x1 = 0.0931	852.7	1.48739	1274
313.15 K, x1 = 0.1919	841.5	1.47936	1257
313.15 K, x1 = 0.2934	829.3	1.47048	1241
313.15 K, x1 = 0.3772	818.8	1.46299	1227
313.15 K, x1 = 0.4855	804.6	1.45278	1209
313.15 K, x1 = 0.5894	790.1	1.44238	1192
313.15 K, x1 = 0.685	776.2	1.43216	1177
313.15 K, x1 = 0.8099	756.9	1.41833	1158
313.15 K, x1 = 0.8912	743.6	1.40862	1146
313.15 K, x1 = 0.9479	734.1	1.402	1138
313.15 K, x1 = 1	725	1.39456	1130

CC1CCCCC1 [methylcyclohexane] + Cc1cc(C)cc(C)c1
x1 = 1
Details	mass density, [2] [kg/m3]	refractive index, [1]	speed of sound, [2] [m/s]
298.15 K	765.1	1.42062	1215
313.15 K	751.9	1.41274	1150
